Blank lines part the entries; values can stand above or below the compound they belong to. The source made the active and inactive calls. No cut-off for these calls is given here.
Legend:
PC-3 = assay: Inhibition of cell viability in AR-independent human PC-3 cells by Steady-Glo luciferase assay; type: functional, cell-based
CWR22R [1] = assay: Inhibition of cell viability in ARV7-positive human 22Rv1 cells by Steady-Glo luciferase assay; type: functional, cell-based
[2] = Metabolic stability in mouse liver microsomes assessed as intrinsic clearance measured per mg protein; type: ADME, Microsome; settings: read-out: CLH
[3] = Distribution coefficient, logD of compound by chromatography; type: physicochemical; settings: octanol/water
[4] = Metabolic stability in mouse liver microsomes assessed as half life; type: ADME, Microsome
[5] = Drug uptake in C57BL6 mouse plasma at 25 mg/kg, po via gavage measured for 4 hrs by LC-MS/MS analysis; type: ADME, organism-based; settings: in vivo
CWR22R [6] = assay: Antitumor activity against human 22Rv1 cells xenografted in SCID C.B17 mouse assessed as tumor growth inhibition by measuring tumor weight at 50 mg/kg/day, IG measured for 21 days by caliper method; type: functional, organism-based; settings: time 21.0 day
[7] = Half life in Sprague-Dawley rat at 1.8 mg/kg, iv measured for 24 hrs by LC-MS/MS analysis; type: ADME, organism-based; settings: in vivo
[8] = AUC (0 to t) in Sprague-Dawley rat at 25 mg/kg, IG measured for 24 hrs by LC-MS/MS analysis; type: ADME, organism-based; set-up: dose 25 mg/kg, time 24 hrs, route ig; settings: in vivo, po
[9] = Half life in Sprague-Dawley rat at 25 mg/kg, IG measured for 24 hrs by LC-MS/MS analysis; type: ADME, organism-based; settings: in vivo, po
[10] = MRT (0 to t) in Sprague-Dawley rat at 1.8 mg/kg, iv measured for 24 hrs by LC-MS/MS analysis; type: ADME, organism-based; settings: in vivo
[11] = Cmax in Sprague-Dawley rat at 25 mg/kg, IG measured for 24 hrs by LC-MS/MS analysis; type: ADME, organism-based; set-up: dose 25 mg/kg, time 24 hrs, route ig; settings: in vivo, po
[12] = biological target: T1, Androgen receptor (Homo sapiens) (UniProt P10275); assay: Inhibition of androgen receptor transfected in human HEK293T cells incubated for 24 to 72 hrs by Western blot analysis; type: cell-based; settings: dose 0.5-1 µM, time 24-72 hrs
T1 sequence (whole entry): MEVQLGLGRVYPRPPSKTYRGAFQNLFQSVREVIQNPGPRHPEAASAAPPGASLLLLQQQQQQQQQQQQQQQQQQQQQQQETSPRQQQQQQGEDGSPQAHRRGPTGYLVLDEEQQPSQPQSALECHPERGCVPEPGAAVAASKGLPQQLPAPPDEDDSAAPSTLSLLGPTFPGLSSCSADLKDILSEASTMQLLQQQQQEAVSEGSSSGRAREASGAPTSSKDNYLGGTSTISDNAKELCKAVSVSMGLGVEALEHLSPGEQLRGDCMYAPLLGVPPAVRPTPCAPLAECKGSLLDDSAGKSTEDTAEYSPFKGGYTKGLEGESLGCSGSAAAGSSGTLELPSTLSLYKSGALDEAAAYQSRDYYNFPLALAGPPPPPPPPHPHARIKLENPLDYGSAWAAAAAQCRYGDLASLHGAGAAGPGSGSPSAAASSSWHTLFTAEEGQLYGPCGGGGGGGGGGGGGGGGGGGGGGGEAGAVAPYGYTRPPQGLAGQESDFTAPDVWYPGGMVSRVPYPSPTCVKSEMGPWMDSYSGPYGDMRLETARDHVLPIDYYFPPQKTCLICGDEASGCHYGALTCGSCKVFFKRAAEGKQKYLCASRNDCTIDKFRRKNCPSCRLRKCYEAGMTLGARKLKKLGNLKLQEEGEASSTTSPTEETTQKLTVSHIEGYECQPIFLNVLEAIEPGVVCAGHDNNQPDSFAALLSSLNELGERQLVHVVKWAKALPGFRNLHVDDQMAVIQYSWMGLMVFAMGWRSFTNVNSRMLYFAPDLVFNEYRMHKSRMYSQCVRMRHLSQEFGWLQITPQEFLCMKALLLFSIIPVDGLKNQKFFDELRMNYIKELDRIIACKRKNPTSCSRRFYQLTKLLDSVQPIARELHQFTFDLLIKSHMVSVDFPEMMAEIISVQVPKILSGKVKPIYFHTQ

[13] = Elimination rate constant in Sprague-Dawley rat at 1.8 mg/kg, iv measured for 24 hrs by LC-MS/MS analysis; type: ADME, organism-based; settings: in vivo
[14] = biological target: T1, Androgen receptor (Homo sapiens); assay: Inhibition of androgen receptor transfected in human HEK293T cells at 0.5 to 1 uM by Western blot analysis; type: cell-based; settings: dose 0.5-1 µM, time 24-72 hrs, TDE = time-dependent effect
LNCaP C4-2B = assay: Inhibition of cell viability in AR-dependent human LNCaP C4-2B cells by Steady-Glo luciferase assay; type: functional, cell-based
[15] = MRT (0 to t) in Sprague-Dawley rat at 25 mg/kg, IG measured for 24 hrs by LC-MS/MS analysis; type: ADME, organism-based; settings: in vivo, po
[16] = C0 in Sprague-Dawley rat at 1.8 mg/kg, iv measured for 24 hrs by LC-MS/MS analysis; type: ADME, organism-based; settings: in vivo
[17] = AUC (0 to infinity) in Sprague-Dawley rat at 25 mg/kg, IG measured for 24 hrs by LC-MS/MS analysis; type: ADME, organism-based; set-up: time 24 hrs, dose 25 mg/kg, route ig; settings: in vivo, po
LNCaP = assay: Inhibition of cell viability in AR-dependent human LNCaP cells by Steady-Glo luciferase assay; type: functional, cell-based
[18] = Elimination rate constant in Sprague-Dawley rat at 25 mg/kg, IG measured for 24 hrs by LC-MS/MS analysis; type: ADME, organism-based; settings: in vivo, po
DU-145 = assay: Inhibition of cell viability in AR-independent human DU-145 cells by Steady-Glo luciferase assay; type: functional, cell-based
[19] = Inhibition of cell viability in human adipose stromal cells by CCK8 assay; type: toxicity, cell-based
[20] = MRT (0 to infinity) in Sprague-Dawley rat at 25 mg/kg, IG measured for 24 hrs by LC-MS/MS analysis; type: ADME, organism-based; settings: in vivo, po
[21] = AUC (0 to t) in Sprague-Dawley rat at 1.8 mg/kg, iv measured for 24 hrs by LC-MS/MS analysis; type: ADME, organism-based; set-up: time 24 hrs, dose 1.8 mg/kg, route iv; settings: in vivo
[22] = biological target: T1, Androgen receptor (Homo sapiens); assay: Inhibition of androgen receptor in human 22Rv1 cells assessed as decrease in HGF mRNA level at 1 uM incubated for 36 hrs by RNA sequencing analysis; type: cell-based
[23] = MRT (0 to infinity) in Sprague-Dawley rat at 1.8 mg/kg, iv measured for 24 hrs by LC-MS/MS analysis; type: ADME, organism-based; settings: in vivo
[24] = Oral bioavailability in Sprague-Dawley rat at 25 mg/kg measured for 24 hrs by LC-MS/MS analysis; type: ADME, organism-based; settings: in vivo
[25] = Volume of distribution at steady state in Sprague-Dawley rat at 1.8 mg/kg, iv measured for 24 hrs by LC-MS/MS analysis; type: ADME, organism-based; settings: in vivo, read-out: Vdss
[26] = Tmax in Sprague-Dawley rat at 25 mg/kg, IG measured for 24 hrs by LC-MS/MS analysis; type: ADME, organism-based; settings: in vivo, po
[27] = Toxicity in SCID C.B17 mouse xenografted with human 22Rv1 cells assessed as body weight loss at 50 mg/kg/day, IG measured for 21 days; type: organism-based, CWR22R; settings: in vivo, po, 504 h, time 21 day
[28] = Clearance in Sprague-Dawley rat at 1.8 mg/kg, iv measured for 24 hrs by LC-MS/MS analysis; type: ADME, organism-based; settings: in vivo
HEK-293T = assay: Downregulation of AR-v1 expression transfected in human HEK293T cells at 0.5 to 1 uM incubated for 24 to 72 hrs by Western blot analysis; type: functional, cell-based; settings: dose 0.5-1 µM, time 24-72 hrs
CWR22R [29] = assay: Antitumor activity against human 22Rv1 cells xenografted in SCID C.B17 mouse assessed as tumor growth inhibition by measuring tumor volume at 50 mg/kg/day, IG measured for 21 days by caliper method; type: functional, organism-based; settings: time 21.0 day
[30] = AUC (0 to infinity) in Sprague-Dawley rat at 1.8 mg/kg, iv measured for 24 hrs by LC-MS/MS analysis; type: ADME, organism-based; set-up: dose 1.8 mg/kg, time 24 hrs, route iv; settings: in vivo

Compound: O=c1cnc(-c2cccc(Cl)c2)nn1Cc1cccc(Cl)c1
- IC50 (PC-3): 11400 nM
- IC50 (CWR22R [1]): 2660 nM

Compound: CC(C)n1nc(-c2ccccc2)ncc1=O
- IC50 (PC-3): 32500 nM
- IC50 (CWR22R [1]): 920 nM

Compound: COc1cccc(-c2ncc(=O)n(Cc3ccc(Cl)c(Cl)c3)n2)c1
- IC50 (PC-3): > 10000 nM
- IC50 (CWR22R [1]): 3310 nM

Compound: O=c1cnc(-c2cccc(Br)c2)nn1Cc1cccc(Cl)c1
- IC50 (PC-3): 11800 nM
- IC50 (CWR22R [1]): 3250 nM

Compound: COc1ccc(Cn2nc(-c3cccc(OC)c3)ncc2=O)cc1
- IC50 (PC-3): > 10000 nM
- IC50 (CWR22R [1]): 3120 nM

Compound: O=c1cnc(-c2ccccc2)nn1C1CCCC1
- microsomal CLint [2]: 296 µL/min/mg
- chromatographic logD [3]: 3.8
- half-life [4]: 0.1 h
- IC50 (PC-3): 10100 nM
- IC50 (CWR22R [1]): 490 nM

Compound: CC(C)CCn1nc(-c2ccccc2)ncc1=O
- IC50 (PC-3): 10800 nM
- IC50 (CWR22R [1]): 640 nM

Compound: O=c1cnc(-c2ccccc2)nn1-c1ccccc1
- IC50 (PC-3): > 10000 nM
- IC50 (CWR22R [1]): 2190 nM

Compound: O=c1cnc(-c2ccccc2)nn1Cc1ccc(Cl)cc1
- Drug uptake [5]: Not Active
- IC50 (PC-3): 10900 nM
- IC50 (CWR22R [1]): 600 nM

Compound: N#CCCCn1nc(-c2ccccc2)ncc1=O
- IC50 (PC-3): 42900 nM
- IC50 (CWR22R [1]): 3030 nM

The next lines start with results.

- IC50 (PC-3): 2940 nM
Compound: O=c1cnc(Cc2ccccc2)nn1CC1CCCCC1
- IC50 (CWR22R [1]): 3230 nM

- IC50 (PC-3): 600 nM
Compound: O=c1cnc(Cc2ccccc2)nn1CC1CC1
- IC50 (CWR22R [1]): 390 nM

- microsomal CLint [2]: 181 µL/min/mg
- chromatographic logD [3]: 4.3
- half-life [4]: 0.167 h
- IC50 (PC-3): 2550 nM
Compound: O=c1cnc(-c2ccccc2)nn1Cc1ccccc1Cl
- IC50 (CWR22R [1]): 270 nM

- Drug uptake [5]: Not Active
- IC50 (PC-3): 3230 nM
Compound: O=c1cnc(-c2ccccc2)nn1Cc1ccc(Cl)nc1
- IC50 (CWR22R [1]): 90 nM

- half-life [7]: 8.02 h
- Drug uptake [5]: Active
- AUC(0-t) at 24 h [8]: 26500 ng·h/mL
- half-life [9]: 4.59 h
- MRT last at 24 h [10]: 5.05 h
- Cmax [11]: 1910 ng/mL
- inhibition [12]: Dose-Dependent Effect
- k el at 24 h [13]: 2.5e-05 s⁻¹
- inhibition [14]: Tde
- IC50 (LNCaP C4-2B): 320 nM
- MRT last at 24 h [15]: 8.4 h
- C0 at 24 h [16]: 12600 ng/mL
- AUC(0-inf) [17]: 27500 ng·h/mL
- IC50 (LNCaP): 170 nM
- k el at 24 h [18]: 4.17e-05 s⁻¹
- IC50 (DU-145): 1850 nM
- MRT inf [20]: 9.27 h
- AUC(0-t) at 24 h [21]: 14300 ng·h/mL
- inhibition [22]: Active
- MRT inf [23]: 7.65 h
- bioavailability [24]: 12.6%
- IC50 (PC-3): 1480 nM
- Vd [25]: 0.87 L/kg
- Tmax [26]: 4 h
- clearance [28]: 2.02 mL/min/kg
- AUC(0-inf) [30]: 15700 ng·h/mL
Compound: O=c1cnc(Cc2ccccc2)nn1Cc1ccc(Cl)cc1Cl
- TGI (CWR22R [6]): Active
- IC50 [19]: 3330 nM
- IC50 (CWR22R [1]): 180 nM
- Activity [27]: Non-Toxic
- Activity (HEK-293T): inactive
- TGI (CWR22R [29]): Active

- IC50 (PC-3): 9790 nM
Compound: O=c1cnc(Cc2ccccc2)nn1Cc1ccccc1
- IC50 (CWR22R [1]): 740 nM

- Drug uptake [5]: Not Active
- IC50 (PC-3): 5280 nM
Compound: O=c1cnc(-c2ccccc2)nn1Cc1cccc(C(F)(F)F)c1
- IC50 (CWR22R [1]): 220 nM

- Drug uptake [5]: Not Active
- IC50 (PC-3): 2520 nM
Compound: O=c1cnc(Cc2ccccc2)nn1Cc1cccc(C(F)(F)F)c1
- IC50 (CWR22R [1]): 130 nM

- Drug uptake [5]: Not Active
- IC50 (PC-3): 4370 nM
Compound: Cc1nc(Cn2nc(-c3ccccc3)ncc2=O)cs1
- IC50 (CWR22R [1]): 690 nM

- IC50 (PC-3): 430 nM
Compound: COc1cccc(-c2ncc(=O)n(Cc3ccc(Cl)cc3Cl)n2)c1
- IC50 (CWR22R [1]): 150 nM

- Drug uptake [5]: Not Active
- IC50 (PC-3): 2140 nM
Compound: O=c1cnc(Cc2ccccc2)nn1Cc1ccc(Cl)c(Cl)c1
- IC50 (CWR22R [1]): 200 nM

- IC50 (PC-3): 3340 nM
Compound: O=c1cnc(-c2ccccc2)nn1-c1ccc(Cl)cc1
- IC50 (CWR22R [1]): 1400 nM

— ChEMBL document CHEMBL5335810, “1,3-Disubstituted-1,2,4-triazin-6-ones with potent activity against androgen receptor-dependent prostate cancer cells” (Bioorg Med Chem, 2024)
